Consider 16 molecules from paper PMC6100603, “Exploring the Dual Inhibitory Activity of Novel Anthranilic Acid Derivatives towards α-Glucosidase and Glycogen Phosphorylase Antidiabetic Targets: Design, In Vitro Enzyme Assay, and Docking Studies” (Molecules : A Journal of Synthetic Chemistry and Natural …, 2018).

Where “and” joins values, the source holds several entries; their conditions need not be identical. Equal entries are not always repeated.

The target in data set [1] is T1, Rabbit muscle glycogen phosphorylase a (Oryctolagus cuniculus, UniProt P00489).
T1 construct: purchased Abcam
T1 sequence (P00489 2-843 limits assumed): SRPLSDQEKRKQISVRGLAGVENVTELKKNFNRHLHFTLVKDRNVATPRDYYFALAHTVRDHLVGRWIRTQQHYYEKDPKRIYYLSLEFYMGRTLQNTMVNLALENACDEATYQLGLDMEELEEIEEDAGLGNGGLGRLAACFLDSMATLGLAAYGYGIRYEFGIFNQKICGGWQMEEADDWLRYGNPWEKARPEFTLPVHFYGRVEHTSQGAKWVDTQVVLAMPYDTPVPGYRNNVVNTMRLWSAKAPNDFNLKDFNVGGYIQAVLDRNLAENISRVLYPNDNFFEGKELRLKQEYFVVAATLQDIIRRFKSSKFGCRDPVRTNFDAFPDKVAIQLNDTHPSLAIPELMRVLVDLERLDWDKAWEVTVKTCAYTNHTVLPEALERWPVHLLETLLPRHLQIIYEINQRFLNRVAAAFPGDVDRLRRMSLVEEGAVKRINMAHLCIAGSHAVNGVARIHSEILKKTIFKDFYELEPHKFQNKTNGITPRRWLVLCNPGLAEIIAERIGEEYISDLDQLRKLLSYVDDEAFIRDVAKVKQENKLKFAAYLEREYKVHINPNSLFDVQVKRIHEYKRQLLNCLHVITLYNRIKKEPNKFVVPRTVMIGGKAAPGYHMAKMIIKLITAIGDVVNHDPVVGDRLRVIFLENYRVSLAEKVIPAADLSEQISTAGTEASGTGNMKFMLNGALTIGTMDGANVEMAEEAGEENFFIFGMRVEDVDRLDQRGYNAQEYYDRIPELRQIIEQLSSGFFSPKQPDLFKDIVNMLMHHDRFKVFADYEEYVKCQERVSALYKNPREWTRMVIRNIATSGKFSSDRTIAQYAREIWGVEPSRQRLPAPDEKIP
Kind of data set: Glycogen phosphorylase enzyme assay (phosphate release, malachite green). The conditions noted are these: mean of three determinations. Format: biochemical. The procedure: Rabbit muscle glycogen phosphorylase a (from Abcam, 0.475 mg/ mL) activity was measured in the direction of glycogen synthesis by the release of phosphate from glucose-1-phosphate using a 384-well plate at 22 °C in […] of buffer containing 50 mM Hepes (pH 7.2), 100 mM KCl, 2.5 mM EGTA, 2.5 Mm MgCl2, 0.25 Mm glucose-1-phosphate, and 1 mg/mL glycogen with a 30-min incubation time. Phosphate was measured at 620 nm, 5 minutes after the addition of […] of 1 MHCl containing 10 mg/mL ammonium molybdate and 0.38 mg/mL malachite green. Test compounds were added to the assay in […] of 14% DMSO. Compounds were tested against a deoxynojirimycin hydrochloride (Abcam) standard in 11 point concentration response curve in duplicate on two separate occasions. Data were analyzed using GraphPad Prism v.4.03, GraphPad Software, (La Jolla, CA, USA).
A nonlinear regression (curve fit) analysis with a sigmoidal dose response equation (variable slope) was applied to generate IC50 and hill slope values. […] Compounds were screened with maximal concentrations of […]. The assay was carefully monitored for signs of compound insolubility. The results are presented as mean values from three determinations.

In data set [2] the test system is Sprague-Dawley (SD) rats with streptozocin-induced diabetes. The data set is described as follows: In vivo antidiabetic screening, blood glucose level in STZ-induced diabetic rats. Set-up: species or system rat. To be noted: for Blood Glucose Level, Reading 1: 15 h fasting followed by 5-mg meal, before treatment; for Blood Glucose Level, Fasting: after fasting for 15 h, pretreatment; for Blood Glucose Level, Reading 2: second day, after oral treatment 40 mg/100 g body weight followed by 5-mg meal. As for the experimental part: The compound (7b) was tested on Sprague-Dawley (SD) rats for the effect on the blood glucose level, as described in the experimental Section 3.8, and the results are reported in (Table 2) and (Figure 3). Blood glucose levels were measured after fasting for 15 h (fasting reading), followed by the administration of a 5-mg meal (reading 1). Moreover, a second day reading after treatment with normal saline, acarbose, or (7b) compound blood glucose level (reading 2) followed by a 5-mg meal, was measured. […] In addition, the blood glucose level after 15 h fasting followed by a meal of 5 mg (reading 1) was compared to the blood glucose levels under the same conditions, and following the administration of normal saline, acarbose or compound (7b). For the control non-diabetic non-treated group and the diabetic non- treated group, no significant difference between (readings 1 and 2) was shown. For the group of rats treated with acarbose or compound (7b) one hour before a meal, blood glucose levels decreased from 147 ± 2 to 136 ± 3.28 and 120 ± 0.88 mg/dL to 116 ± 0.57, respectively. […] Twenty male Sprague–Dawley (SD) rats were maintained in an air-conditioned room (25 °C) at a constant humidity (55–60%). All rats were provided with a standard rat diet containing 60% carbohydrate (w/w), 2% fat (w/w), 17.5% protein (w/w), 8% fiber (w/w), and water ad libitum. The experiments were performed in accordance with the internationally accepted standard ethical guidelines for laboratory animal use and care, as described in the European Community guidelines. The Institutional Animal Ethics Committee of Al-Azhar University approved the study protocols (approval No: 409/432, 3/2018). Diabetes was induced in 12 Sprague–Dawley (SD) male rats by a single intraperitoneal injection of 40 mg/kg streptozocin (STZ) dissolved in 0.1 M/L citrate buffer at a pH of 4.5. Three rats were injected with normal saline and vehicle only to serve as negative controls. The remaining diabetic rats (nine) were identified by an increase in blood glucose more than 200 ± 10 mg/dL after one week. Blood glucose levels were measured using One Touch Ultra 2 glucometer (Lifescan inc., Wayne, USA) every week for the following two weeks to confirm the diabetic status. Rats were 6–8 weeks of age and the average weight when starting the experiment was 200 ± 20 g. Twelve rats were randomly assigned to four groups. Group 1: non-diabetic non-treated (control). Group 2: Diabetic non-treated. Group 3: Diabetic and administrated acarbose before meals. Group 4: Diabetic and administrated our new compound before a meal. Briefly; the first group was injected with an IP vehicle only. The other three groups were injected with streptozocin (STZ) and developed diabetes. The second group was diabetic and untreated. The third group was diabetic rats treated with acarbose at 40 mg per 100 g body weight 30 min. before meal using oral tube. The fourth group administrated 40 mg/100 g body weight of the test compound (7b). Rats were fasted over 15 h and blood sugar levels were measured (pretreatment). For each rat, 5 mg standard rat diet was supplied to each rat and blood glucose levels were measured to detect increases after 1 hour. Rats were fed again with the same amount after 8 h. Food was removed to allow animals to fast again for 15 h. On the following day, groups 1 and two were not given any treatment, while group 3 rats were given acarbose (positive control) and group 4 were given the test compound (7b). Blood glucose levels were measured in tail vein blood samples taken from fasting rats (time point 0), then designated groups are fed either acarbose or the test compound, suspended in PBS and delivered using an oral tube. After half an hour, the rats were given five mg. Blood samples were taken after 1 hour. Blood glucose was expected to rise after meal and the effect of the drugs was evaluated according to their abilities to control post-meal excursions.

The target of data set [3] is α-Glucosidase from Saccharomyces cerevisiae. The data set is described as follows: α-Glucosidase inhibition assay (spectrophotometric, p-nitrophenyl-α-D-glucopyranoside). Format: biochemical. The conditions noted are these: mean ± spread, triplicate. The procedure: α-Glucosidase inhibition assay was performed spectrophotometrically. α-Glucosidase from Saccharomyces cerevisiae (Abcam, Cambridge, UK) was dissolved in phosphate buffer (pH 6.8, 50 mM). Test compounds were dissolved in DMSO. In 96-well microtiter plates, 20 µL of test sample, 20 µL of enzyme (20 mU/mL) and 135 µL of buffer were added and incubated for 15 minutes at 37 °C. After incubation, 25 µL of p-nitrophenyl-α-D-glucopyranoside (2 mM, Abcam) was added and change in absorbance was monitored for 20 min at 400 nm. Test compound was replaced by DMSO (10% final) as control. Deoxynojirimycin hydrochloride (Abcam) was used as a standard inhibitor. The assays were done in triplicate. IC50 values were calculated from non-linear regression curve of percentage inhibition versus log compound concentration.

Turning to `OC[C@H]1NC[C@H](O)[C@@H](O)[C@@H]1O` [1-Deoxynojirimycin, reference compound], the IC50 (in general, the concentration at which inhibition is half-maximal) in data set [1] worked out at 55.6 ± 110 nM.

`C[C@H]1O[C@H](O[C@H]2[C@H](O)[C@@H](O)[C@@H](O[C@H]3[C@H](O)[C@@H](O)C(O)O[C@@H]3CO)O[C@@H]2CO)[C@H](O)[C@@H](O)[C@@H]1N[C@H]1C=C(CO)[C@@H](O)[C@H](O)[C@H]1O` (stereo partly shown) [Acarbose, reference compound]: in data set [2], the “Blood Glucose Level, Reading 1” value stood at 147 ± 2.0 mg/dL; the “Blood Glucose Level, Fasting” value came out at 204 ± 4.5 mg/dL; the “Blood Glucose Level, Reading 2” value was 136 ± 3.28 mg/dL. In data set [2] (listed as acarbose), the “Blood Glucose Level, Reading 1” value turned out to be 147 ± 2 mg/dL.

In the case of `COC(=O)c1ccccc1NC(=O)c1ccccn1` [Compound 1, Methyl 2-(picolinamido)benzoate], the melting point (commonly the temperature, or range, at which the solid turns liquid) lay in the range of 210 to 212 °C. In data set [1], this molecule had an IC50 of 541 ± 60 nM. In addition, the IC50 in data set [3] is 735 nM and 736 nM.

With `O=C(Nc1ccccc1C(=O)NCc1ccccc1)c1ccccn1` [Compound 3a, N-(2-(Benzylcarbamoyl)phenyl)picolinamide], the IC50 in data set [1] stood at 150 ± 70 nM; in data set [3], 89.6 nM.

Molecule `COc1ccc(CNC(=O)c2ccccc2NC(=O)c2ccccn2)cc1` [Compound 3b, N-(2-((4-Methoxybenzyl)carbamoyl)phenyl)picolinamide] showed a melting point of 225 to 227 °C. Besides, inhibition in data set [3] was half-maximal at 22.3 nM (IC50).

`O=C(Nc1ccccc1C(=O)NCc1ccc(F)cc1)c1ccccn1` [Compound 3c, N-(2-((4-Fluorobenzyl)carbamoyl)phenyl)picolinamide] registered an IC50 in data set [1] of 86.4 ± 20 nM.

As to `O=C(Nc1ccccc1C(=O)NCc1ccc(Cl)cc1)c1ccccn1` [Compound 3d, N-(2-((4-Chlorobenzyl)carbamoyl)phenyl)picolinamide], the melting point lay within 233 to 235 °C. Besides, the midpoint of inhibition in data set [1], the IC50, lay at 177 ± 50 nM. In data set [3], the IC50 was found to be 94.7 nM.

In the case of `Cc1ccc(CNC(=O)c2ccccc2NC(=O)c2ccccn2)cc1` [Compound 3e, N-(2-((4-Methylbenzyl)carbamoyl)phenyl)picolinamide], the melting point lay in the range of 275 to 278 °C. Also, in data set [1], the IC50 stood at 262 ± 10 nM.

As to `NS(=O)(=O)c1ccc(NC(=O)c2ccccc2NC(=O)c2ccccn2)cc1` [Compound 5a, N-(2-((4-Sulfamoylphenyl)carbamoyl)phenyl)picolinamide], half-maximal inhibition in data set [3] (IC50) was put at 47.7 nM.

Turning to `O=C(Nc1ccccc1C(=O)Nc1ccc(S(=O)(=O)Nc2ccccn2)cc1)c1ccccn1` [Compound 5b, N-(2-((4-(N-(Pyridin-2-yl)sulfamoyl)phenyl)carbamoyl)phenyl)picolinamide], the IC50 in data set [1] worked out at 16.6 nM; in data set [3], 21.2 nM.

Molecule `O=C(Nc1ccccc1C(=O)Nc1ccc(S(=O)(=O)Nc2nccs2)cc1)c1ccccn1` [Compound 5c, N-(2-((4-(N-(Thiazol-2-yl)sulfamoyl)phenyl)carbamoyl)phenyl)picolinamide] had a melting point of 217 to 219 °C. The midpoint of inhibition in data set [3], the IC50, lay at 12.5 ± 10 nM.

For `NNC(=O)c1ccccc1NC(=O)c1ccccn1` [Compound 6, N-(2-(Hydrazinecarbonyl)phenyl)picolinamide], the melting point was in the range of 210 to 212 °C. The molecule further registered an IC50 in data set [1] of 582 ± 580 nM. In data set [3] (listed as 7), this molecule returned an IC50 of 416 nM.

For `O=C(Nc1ccccc1C(=O)N/N=C/c1ccccc1)c1ccccn1` [Compound 7a, (E)-N-(2-(2-Benzylidenehydrazine-1-carbonyl)phenyl)picolinamide], the melting point fell in the range of 205 to 207 °C. This molecule had an IC50 in data set [1] of 208 nM.

In turn, `O=C(Nc1ccccc1C(=O)N/N=C/c1ccc(O)cc1O)c1ccccn1` [Compound 7b, (E)-N-(2-(2-(2,4-Dihydroxybenzylidene)hydrazine-1-carbonyl)phenyl)picolinamide] yielded a melting point of 215 to 217 °C. Also, inhibition in data set [1] was half-maximal at 13.7 ± 30 nM (IC50). The “Effect on blood glucose level compared with reference drug” value in data set [2] (40 mg/100 g body weight oral before meal) is “succeeded in decreasing the blood glucose level of diabetic rats better than the reference oral antidiabetic drug, acarbose”. In addition, in data set [2], the “Blood Glucose Level, Reading 1” value was 120 ± 0.88 mg/dL; the “Blood Glucose Level, Fasting” value worked out at 207 ± 0.88 mg/dL; the “Blood Glucose Level, Reading 2” value worked out at 116 ± 0.57 mg/dL. In data set [3], this molecule had an IC50 of 17.6 nM.

Turning to `O=C(Nc1ccccc1C(=O)N/N=C/c1ccccn1)c1ccccn1` [Compound 7c, (E)-N-(2-(2-(Pyridin-2-ylmethylene)hydrazine-1-carbonyl)phenyl)picolinamide], the melting point was 225 to 227 °C. This molecule displayed an IC50 in data set [1] of 86.4 nM. For the same molecule, in data set [3], the IC50 turned out to be 231 ± 570 nM.

Molecule `O=C(Nc1ccccc1C(=O)N/N=C/c1ccc(Cl)cc1Cl)c1ccccn1` [Compound 7d, (E)-N-(2-(2-(2,4-Dichlorobenzylidene)hydrazine-1-carbonyl)phenyl)picolinamide] gave a melting point of 212 to 214 °C. Further, the IC50 in data set [3] turned out to be 78.4 ± 50 nM.
